In test [1] the test system is Rattus norvegicus. The test is described as follows: Inhibition of effort-related effects of TBZ in Harlan Sprague Dawley rat assessed as decrease in TBZ-induced chow intake at 160 mg/kg, po administered 3 hrs prior to testing followed by coadministration with TBZ at 90 mins prior to testing measured for 30 mins. In kind it is functional, organism-based.
Test [2] has as its system Rattus norvegicus. The test is described as follows: Inhibition of effort-related effects of TBZ in 90 mins TBZ pretreated Harlan Sprague Dawley rat assessed as increase in TBZ-induced lever presses at 4 to 8 microg, icv administered via chronic indwelling cannulae 20 mins prior to testing measured for 30 mins. In kind it is functional, organism-based.
Test [3] has as its system Rattus norvegicus. Put plainly: Inhibition of effort-related effects of TBZ in Harlan Sprague Dawley rat assessed as increase in TBZ-induced lever presses at 160 mg/kg, po administered 3 hrs prior to testing followed by coadministration with TBZ at 90 mins prior to testing measured for 30 mins. In kind it is functional, organism-based.
The subject of test [4] is Rattus norvegicus. Put plainly: Inhibition of effort-related effects of TBZ in 90 mins TBZ pretreated Harlan Sprague Dawley rat assessed as decrease in TBZ-induced chow intake at 4 to 8 microg, icv administered via chronic indwelling cannulae 20 mins prior to testing measured for 30 mins. In kind it is functional, organism-based.
For test [5], the system named is Rattus norvegicus. The test is described as follows: Ratio of compound effect for TBZ-induced lever presses in icv administered Harlan Sprague Dawley rat to compound effect for TBZ-induced lever presses in orally administered Harlan Sprague Dawley rat. In kind it is functional.
Test [6] concerns Rattus norvegicus. Put plainly: Inhibition of effort-related effects of TBZ in Harlan Sprague Dawley rat assessed as increase in TBZ-induced lever presses at 80 to 160 mg/kg, po administered 2 hrs prior to testing followed by TBZ addition at 90 mins prior to testing measured for 30 mins. In kind it is functional, organism-based.
The test system of test [7] is Rattus norvegicus. The test is described as follows: Inhibition of effort-related effects of TBZ in Harlan Sprague Dawley rat assessed as decrease in TBZ-induced chow intake at 80 to 160 mg/kg, po administered 2 hrs prior to testing followed by TBZ addition at 90 mins prior to testing measured for 30 mins. In kind it is functional, organism-based.
The subject of test [8] is Rattus norvegicus. Put plainly: Ratio of compound effect for TBZ-induced chow intake in icv administered Harlan Sprague Dawley rat to compound effect for TBZ-induced chow intake in orally administered Harlan Sprague Dawley rat. In kind it is functional.

SMILES strings stand for the structures. Active and inactive are the calls of the source. The calls are words filed in the database; no cut-off is given here.

As for `COc1cc(/C=C/C(=O)CC(=O)/C=C/c2ccc(O)c(OC)c2)ccc1O` [CURCUMIN], the inhibition result in the test with Rattus norvegicus [1], in the test with Rattus norvegicus [2], in the test on Rattus norvegicus [3] and with Rattus norvegicus [4] was “Active” each time. In addition, the Ratio in the test with Rattus norvegicus [5] and with Rattus norvegicus [8] was more than 1000 in each case. Also, the inhibition entry in the test with Rattus norvegicus [6] and with Rattus norvegicus [7] was “inactive” throughout.

These data come from ChEMBL document CHEMBL4130439, “Oral Ingestion and Intraventricular Injection of Curcumin Attenuates the Effort-Related Effects of the VMAT-2 Inhibitor Tetrabenazine: Implications for Motivational Symptoms of Depression” (2017).
